ChEMBL document CHEMBL5727106, “Imidazol- or 1,2,4-triazol-derivatives and their use” (2019)
pEC50: −log10 of the molar value.

Legend:
[1] = target: T1, G-protein coupled bile acid receptor 1 (Mus musculus, UniProt Q80SS6); experiment: (§1) TGR5/CRE Luciferase Assay: In the following tables TGR5 activation by compounds and subsequent increase in intracellular cAMP were evaluated using a luciferase reporter gene assay. Human embryonic kidney (HEK) 293 cells were transiently co-transfected with pCMV tag4b-TGR5 h (to follow hTGR5 activation) or pCMV AC6-TGR5m (to follow mTGR5 activation) expression plasmids and the pCRE TA-Luciferase reporter plasmid using the JET PEI reagent (Polyplus transfection). Transfected cells were seeded in 96-well plates and incubated overnight with the test compounds at increasing concentrations tested in duplicate. Lithocolic acid (LCA) at 10 μM was used as a positive reference compound. The cAMP-dependent luciferase expression was followed using the BrightGlo reagent according to the manufacturer (Promega) instructions. Luminescence was read with a Mithras plate reader (Berthold). Data were expressed as percentage of the 10 μM LCA value and EC50 values were calculated using XL fit 5 software or GraphPad Prism 5. Concentration-response curves were fitted by a nonlinear regression analysis to a 4 parameter logistic equation.; format: cell-based
T1 sequence (Q80SS6 whole entry): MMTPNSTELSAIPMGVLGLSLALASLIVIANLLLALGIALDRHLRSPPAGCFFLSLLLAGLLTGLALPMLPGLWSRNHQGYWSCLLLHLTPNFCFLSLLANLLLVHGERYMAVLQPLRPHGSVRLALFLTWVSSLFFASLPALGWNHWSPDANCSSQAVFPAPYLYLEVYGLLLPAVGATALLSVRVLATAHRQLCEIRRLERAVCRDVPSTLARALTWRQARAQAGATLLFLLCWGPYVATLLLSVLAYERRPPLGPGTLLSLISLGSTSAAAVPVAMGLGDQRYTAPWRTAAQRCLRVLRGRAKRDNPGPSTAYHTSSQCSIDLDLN

[2] = target: T2, G-protein coupled bile acid receptor 1 (Homo sapiens, UniProt Q8TDU6); experiment: as §1, with “Data were expressed as percentage of the 10 μM LCA value and EC50 values were calculated using XL fit 5 software or GraphPad Prism 5.” left out; format: cell-based
T2 sequence (Q8TDU6 whole entry): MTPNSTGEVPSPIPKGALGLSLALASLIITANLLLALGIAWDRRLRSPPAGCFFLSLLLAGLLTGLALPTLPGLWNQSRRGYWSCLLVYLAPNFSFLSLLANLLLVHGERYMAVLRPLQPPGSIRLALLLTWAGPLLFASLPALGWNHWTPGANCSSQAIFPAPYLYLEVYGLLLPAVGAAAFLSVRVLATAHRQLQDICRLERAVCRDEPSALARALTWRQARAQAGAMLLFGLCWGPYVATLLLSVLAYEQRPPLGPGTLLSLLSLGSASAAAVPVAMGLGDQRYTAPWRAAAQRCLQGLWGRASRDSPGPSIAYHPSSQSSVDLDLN

Row | pEC50 [1] | pEC50 [2] | Structure (SMILES)
1 | 7.74 | 6.80 | COCCOCCOCCOCCOCCOCCOCCOCCOCCOc1cc(F)c(CSc2ncc(N(C)c3ccc(OC)c(OC)c3)n2-c2ccc(F)cc2)c(F)c1
2 | 7.54 | 6.24 | COCCOCCOCCOCCOCCOCCOCCOCCOCCOCCOc1cc(F)c(CSc2ncc(N(C)c3ccc(OC)c(OC)c3)n2-c2ccc(F)cc2)c(F)c1
3 | 7.17 | 5.92 | COCCOCCOCCOCCOCCOCCOCCOCCOCCOCCOCCOCCOCCOCCOCCOCCOCCOCCOCCOCCOCCOCCOCCOCCOCCOCCOCCOCCOCCOCCOCCOCCOCCOCCOCCOCCOCCOc1cc(F)c(CSc2ncc(N(C)c3ccc(OC)c(OC)c3)n2-c2ccc(F)cc2)c(F)c1
4 | 7.59 | 6.48 | COCCOCCOCCOCCOCCOCCOCCOCCOCCOCCOCCOCCOCCOCCOCCOCCOc1cc(F)c(CSc2ncc(N(C)c3ccc(OC)c(OC)c3)n2-c2ccc(F)c(OC)c2)c(F)c1
